Columns and labels:
[1] = target: Phosphatidylinositol 4-kinase beta (Homo sapiens, UniProt Q9UBF8); experiment: Selectivity interaction (KinomeScan (DiscoverX)) EUB0000229b PI4KB; conditions: at 10 µM
[2] = system: Epidermal growth factor receptor (Homo sapiens), P00533 [UNDEFINED MUTATION]; experiment: Selectivity interaction (ProQinase) EUB0000171b EGFR; conditions: at 5 µM
[3] = target: T1, Mitogen-activated protein kinase kinase kinase 7 (Homo sapiens) (UniProt O43318); experiment: Selectivity interaction (ProQinase) EUB0000171b MAP3K7
T1 sequence (whole entry): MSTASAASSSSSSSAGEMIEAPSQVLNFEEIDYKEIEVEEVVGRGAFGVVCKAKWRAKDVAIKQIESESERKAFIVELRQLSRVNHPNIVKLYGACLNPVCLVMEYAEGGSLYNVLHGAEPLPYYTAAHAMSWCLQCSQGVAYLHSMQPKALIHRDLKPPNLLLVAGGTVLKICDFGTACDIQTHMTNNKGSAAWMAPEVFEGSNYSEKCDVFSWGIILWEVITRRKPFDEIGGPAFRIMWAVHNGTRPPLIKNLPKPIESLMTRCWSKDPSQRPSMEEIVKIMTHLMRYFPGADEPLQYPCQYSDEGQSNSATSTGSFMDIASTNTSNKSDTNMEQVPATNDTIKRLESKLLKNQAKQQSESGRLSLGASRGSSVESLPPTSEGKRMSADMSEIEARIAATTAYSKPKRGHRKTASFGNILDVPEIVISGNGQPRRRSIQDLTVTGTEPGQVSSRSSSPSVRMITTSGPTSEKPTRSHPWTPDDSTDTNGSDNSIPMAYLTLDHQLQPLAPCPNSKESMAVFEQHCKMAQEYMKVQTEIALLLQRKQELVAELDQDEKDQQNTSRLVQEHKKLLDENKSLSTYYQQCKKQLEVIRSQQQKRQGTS

[4] = target: Eukaryotic translation initiation factor 2-alpha kinase 1 (Homo sapiens) (UniProt Q9BQI3); experiment: Selectivity interaction (KinomeScan (DiscoverX)) EUB0001079a EIF2AK1; conditions: at 1 µM
[5] = target: T2, Beta-adrenergic receptor kinase 1 (Homo sapiens) (UniProt P25098); experiment: Selectivity interaction (KinomeScan (DiscoverX)) EUB0001079a ADRBK1; conditions: at 1 µM
T2 sequence (whole entry): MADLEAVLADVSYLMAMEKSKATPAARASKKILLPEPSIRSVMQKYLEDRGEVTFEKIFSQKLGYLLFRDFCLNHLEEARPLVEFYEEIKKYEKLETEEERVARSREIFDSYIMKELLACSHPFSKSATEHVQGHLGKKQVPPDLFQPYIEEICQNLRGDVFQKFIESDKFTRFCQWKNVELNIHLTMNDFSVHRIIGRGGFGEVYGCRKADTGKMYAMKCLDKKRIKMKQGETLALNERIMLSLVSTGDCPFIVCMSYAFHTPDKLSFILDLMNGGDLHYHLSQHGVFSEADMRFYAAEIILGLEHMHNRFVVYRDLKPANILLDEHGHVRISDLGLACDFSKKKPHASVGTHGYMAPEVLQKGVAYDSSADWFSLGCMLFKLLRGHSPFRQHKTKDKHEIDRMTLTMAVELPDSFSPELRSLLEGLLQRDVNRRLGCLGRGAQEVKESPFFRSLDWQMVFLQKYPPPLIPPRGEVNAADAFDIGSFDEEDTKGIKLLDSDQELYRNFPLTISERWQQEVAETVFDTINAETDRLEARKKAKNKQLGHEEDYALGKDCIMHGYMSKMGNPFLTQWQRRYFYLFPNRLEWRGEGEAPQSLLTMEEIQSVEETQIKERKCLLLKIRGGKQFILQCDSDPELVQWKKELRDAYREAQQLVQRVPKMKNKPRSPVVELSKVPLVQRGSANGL

[6] = target: PH-interacting protein (Homo sapiens) (UniProt Q8WWQ0); experiment: Selectivity interaction (Human bromodomain panel (DSF assay)) EUB0000233b PHIP
[7] = system: Mast/stem cell growth factor receptor Kit (Homo sapiens), P10721 [D816V]; conditions: at 10 µM
[8] = target: T3, Inhibitor of nuclear factor kappa-B kinase subunit epsilon (Homo sapiens) (UniProt Q14164); experiment: Selectivity interaction (KinomeScan (DiscoverX)) EUB0000595a IKBKE; conditions: at 10 µM
T3 sequence (whole entry): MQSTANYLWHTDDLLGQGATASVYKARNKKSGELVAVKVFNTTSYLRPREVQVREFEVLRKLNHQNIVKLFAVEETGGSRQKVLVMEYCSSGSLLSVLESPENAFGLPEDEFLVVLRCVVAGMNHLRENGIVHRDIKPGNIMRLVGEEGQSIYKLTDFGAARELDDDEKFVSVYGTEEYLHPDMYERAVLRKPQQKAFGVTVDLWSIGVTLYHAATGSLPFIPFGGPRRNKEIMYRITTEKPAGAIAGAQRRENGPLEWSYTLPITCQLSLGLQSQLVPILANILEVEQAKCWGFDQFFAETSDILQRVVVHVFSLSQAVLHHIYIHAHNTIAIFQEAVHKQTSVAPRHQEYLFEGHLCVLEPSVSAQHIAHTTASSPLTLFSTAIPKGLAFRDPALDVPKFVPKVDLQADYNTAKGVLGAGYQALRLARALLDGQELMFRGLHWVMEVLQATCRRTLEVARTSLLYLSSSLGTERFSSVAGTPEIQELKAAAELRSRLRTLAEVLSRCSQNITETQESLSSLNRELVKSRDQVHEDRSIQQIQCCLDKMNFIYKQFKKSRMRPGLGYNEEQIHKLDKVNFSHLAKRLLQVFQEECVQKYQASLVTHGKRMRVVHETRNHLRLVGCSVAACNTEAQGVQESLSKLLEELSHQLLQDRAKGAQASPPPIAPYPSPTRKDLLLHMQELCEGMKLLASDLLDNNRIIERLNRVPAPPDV

Sequence of Mast/stem cell growth factor receptor Kit (Homo sapiens), P10721 [D816V] (P10721 whole entry D816V): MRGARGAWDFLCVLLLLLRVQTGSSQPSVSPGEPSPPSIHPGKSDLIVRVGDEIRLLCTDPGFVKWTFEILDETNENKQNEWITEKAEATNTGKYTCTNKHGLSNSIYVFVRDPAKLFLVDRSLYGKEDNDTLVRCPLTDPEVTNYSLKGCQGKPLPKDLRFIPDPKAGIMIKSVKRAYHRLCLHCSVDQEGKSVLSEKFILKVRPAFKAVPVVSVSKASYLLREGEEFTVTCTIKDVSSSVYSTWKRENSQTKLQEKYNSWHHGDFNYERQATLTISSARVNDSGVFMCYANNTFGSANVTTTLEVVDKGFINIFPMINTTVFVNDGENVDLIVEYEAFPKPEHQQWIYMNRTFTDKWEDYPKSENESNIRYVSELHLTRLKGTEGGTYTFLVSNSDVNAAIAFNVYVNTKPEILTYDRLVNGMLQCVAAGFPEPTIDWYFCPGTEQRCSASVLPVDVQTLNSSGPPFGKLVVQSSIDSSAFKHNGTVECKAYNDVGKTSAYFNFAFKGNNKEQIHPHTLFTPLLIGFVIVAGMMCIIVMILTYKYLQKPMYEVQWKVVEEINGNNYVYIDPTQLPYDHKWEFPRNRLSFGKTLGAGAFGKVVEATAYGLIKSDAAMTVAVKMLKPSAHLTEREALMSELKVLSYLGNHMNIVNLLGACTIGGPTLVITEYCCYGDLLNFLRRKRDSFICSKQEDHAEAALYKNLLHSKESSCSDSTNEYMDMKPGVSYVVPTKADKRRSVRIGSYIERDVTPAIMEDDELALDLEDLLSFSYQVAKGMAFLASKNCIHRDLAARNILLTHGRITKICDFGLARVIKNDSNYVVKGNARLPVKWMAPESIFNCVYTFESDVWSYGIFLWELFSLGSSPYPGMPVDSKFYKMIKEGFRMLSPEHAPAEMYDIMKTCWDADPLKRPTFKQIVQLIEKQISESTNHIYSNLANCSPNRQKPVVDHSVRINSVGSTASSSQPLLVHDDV
Sequence of Eukaryotic translation initiation factor 2-alpha kinase 1 (Homo sapiens) (Q9BQI3 whole entry): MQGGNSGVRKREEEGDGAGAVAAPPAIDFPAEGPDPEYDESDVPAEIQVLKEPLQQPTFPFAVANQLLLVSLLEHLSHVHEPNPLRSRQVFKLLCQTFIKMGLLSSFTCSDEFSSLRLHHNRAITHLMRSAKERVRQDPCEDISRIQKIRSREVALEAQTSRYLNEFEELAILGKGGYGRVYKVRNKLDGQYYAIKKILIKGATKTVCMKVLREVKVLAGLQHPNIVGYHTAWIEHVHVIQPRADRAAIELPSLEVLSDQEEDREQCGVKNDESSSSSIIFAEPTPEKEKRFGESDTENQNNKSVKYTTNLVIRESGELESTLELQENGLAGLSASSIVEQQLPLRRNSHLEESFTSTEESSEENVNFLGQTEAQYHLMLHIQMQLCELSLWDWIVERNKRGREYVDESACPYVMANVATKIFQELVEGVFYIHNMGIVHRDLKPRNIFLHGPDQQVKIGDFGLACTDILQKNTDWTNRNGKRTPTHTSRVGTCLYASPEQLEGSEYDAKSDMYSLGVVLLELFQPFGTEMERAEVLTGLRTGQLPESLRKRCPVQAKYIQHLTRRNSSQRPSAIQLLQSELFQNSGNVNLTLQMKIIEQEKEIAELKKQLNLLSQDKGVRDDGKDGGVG
Sequence of Epidermal growth factor receptor (Homo sapiens), P00533 [UNDEFINED MUTATION] (P00533 whole entry, looked up, change not shown): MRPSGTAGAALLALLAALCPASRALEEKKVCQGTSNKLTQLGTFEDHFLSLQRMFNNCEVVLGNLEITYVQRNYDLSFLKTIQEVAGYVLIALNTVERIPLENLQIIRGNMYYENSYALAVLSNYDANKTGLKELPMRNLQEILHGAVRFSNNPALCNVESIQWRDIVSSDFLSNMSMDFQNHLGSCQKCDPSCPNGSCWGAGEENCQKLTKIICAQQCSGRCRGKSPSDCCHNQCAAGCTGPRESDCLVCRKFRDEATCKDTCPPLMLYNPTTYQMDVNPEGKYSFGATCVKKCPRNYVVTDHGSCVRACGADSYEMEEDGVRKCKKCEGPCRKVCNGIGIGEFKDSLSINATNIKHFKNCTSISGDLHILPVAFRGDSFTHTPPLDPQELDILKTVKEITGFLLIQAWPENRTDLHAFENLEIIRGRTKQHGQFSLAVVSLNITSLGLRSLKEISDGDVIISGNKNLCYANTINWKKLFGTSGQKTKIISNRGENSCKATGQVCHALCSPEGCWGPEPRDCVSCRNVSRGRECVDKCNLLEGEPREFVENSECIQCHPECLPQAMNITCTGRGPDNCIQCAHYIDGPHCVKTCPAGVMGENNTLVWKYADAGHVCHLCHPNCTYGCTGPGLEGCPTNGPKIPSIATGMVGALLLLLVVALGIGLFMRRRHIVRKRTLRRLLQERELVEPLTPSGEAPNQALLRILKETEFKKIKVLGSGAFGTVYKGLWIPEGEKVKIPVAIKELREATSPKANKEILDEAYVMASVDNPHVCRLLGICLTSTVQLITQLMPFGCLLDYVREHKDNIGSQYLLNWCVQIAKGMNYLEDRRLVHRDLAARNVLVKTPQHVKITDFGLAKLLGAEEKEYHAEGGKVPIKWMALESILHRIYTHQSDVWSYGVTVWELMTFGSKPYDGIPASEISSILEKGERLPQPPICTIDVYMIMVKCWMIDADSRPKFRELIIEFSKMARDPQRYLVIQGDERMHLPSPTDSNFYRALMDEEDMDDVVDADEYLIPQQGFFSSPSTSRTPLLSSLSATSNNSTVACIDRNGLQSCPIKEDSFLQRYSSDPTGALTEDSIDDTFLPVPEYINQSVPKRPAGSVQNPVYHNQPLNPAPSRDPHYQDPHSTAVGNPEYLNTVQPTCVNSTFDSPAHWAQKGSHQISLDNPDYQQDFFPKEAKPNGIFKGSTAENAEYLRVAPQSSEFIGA
Sequence of Phosphatidylinositol 4-kinase beta (Q9UBF8 2-816 limits assumed): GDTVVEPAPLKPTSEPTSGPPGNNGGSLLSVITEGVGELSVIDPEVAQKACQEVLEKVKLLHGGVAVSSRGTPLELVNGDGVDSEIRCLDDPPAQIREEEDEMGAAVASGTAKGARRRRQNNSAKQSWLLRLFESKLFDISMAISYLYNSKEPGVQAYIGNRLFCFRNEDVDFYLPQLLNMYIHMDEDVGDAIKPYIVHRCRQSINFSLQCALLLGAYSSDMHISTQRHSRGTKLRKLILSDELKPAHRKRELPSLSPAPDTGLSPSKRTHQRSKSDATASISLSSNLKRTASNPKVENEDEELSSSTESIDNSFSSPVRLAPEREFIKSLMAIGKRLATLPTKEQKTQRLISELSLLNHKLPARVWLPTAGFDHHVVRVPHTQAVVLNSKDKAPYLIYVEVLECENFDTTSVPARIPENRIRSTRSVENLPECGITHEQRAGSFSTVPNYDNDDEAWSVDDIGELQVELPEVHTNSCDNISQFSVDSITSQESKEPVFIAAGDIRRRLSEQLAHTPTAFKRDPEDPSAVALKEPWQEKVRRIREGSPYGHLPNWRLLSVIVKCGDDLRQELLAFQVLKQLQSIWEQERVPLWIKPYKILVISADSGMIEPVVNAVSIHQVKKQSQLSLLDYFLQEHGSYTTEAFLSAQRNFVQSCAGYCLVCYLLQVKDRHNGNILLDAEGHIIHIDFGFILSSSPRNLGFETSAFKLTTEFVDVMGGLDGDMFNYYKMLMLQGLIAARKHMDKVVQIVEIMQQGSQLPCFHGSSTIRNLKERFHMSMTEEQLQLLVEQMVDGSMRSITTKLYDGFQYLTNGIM

COc1cc(N(C)c2ccnc3ccc(C(F)(F)F)cc23)cc(OC)c1OC
% binding [1]: 90%

C=CC(=O)Nc1cccc(C(=O)Nc2ccc(Nc3cc(-c4[nH]c(SC)nc4C)ccn3)cc2)c1
% of control [2]: 96% | % of control ([3]; at 1 µM): 101% | % of control ([3]; at 5 µM): 77%

Nc1cnc(N2CCc3cc(S(=O)(=O)Nc4c(F)cc(Cl)cc4F)cc(N4CCCC4=O)c32)nc1 [TP-020n]
% of control [4]: 94% | % of control [5]: 100%

CN(C)CCCOc1ccc(-c2cc(NCCCn3cccn3)nc(S(C)(=O)=O)n2)cc1
dTM [6]: < 2 K

Cc1cc([C@@H](C)Nc2ccccc2C(=O)O)c2nc(N3CCOCC3)cc(=O)n2c1 [AZD-6482]
% of control [7]: 81%

COCC(=O)NC/C=C/c1ccc2ncnc(Nc3ccc(Oc4ccc(C)nc4)c(C)c3)c2c1 [CP-724714]
% of control [8]: 100%
